The record followed here is the supplement of paper PMC11061612.

Holding throughout (experiment): Bliss excess, mean over the matrix (fraction); higher = more synergy
Experiment [1] concerns Hey (Ovarian Carcinoma). In a few lines: (§1)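 Cell lines in DMEM/F12 or RPMI with 10% FBS were plated in 1536-well plates, held 24 hours at 37°C, 5% CO2, then given two-drug dose matrices for 72 hours (DMSO typically 0.2%). Viability was read by CellTiter-Glo 2.0 luminescence and scaled as inhibition from 0 (vehicle wells) to 1 (blank wells). Combination Emax is the second-highest inhibition in the matrix; Bliss excess is observed combination effect minus expected EA + EB − EA·EB, EA and EB being single-agent effects.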

For experiment [2], the system named is EJM (Plasma Cell Myeloma). In outline: as §1
Experiment [3] deals with NCI-H1092 (Small Cell Lung Carcinoma). In a few lines:
as §1

For experiment [4], the system named is HCC1937 (Breast Carcinoma). In a few lines: as §1
Experiment [5] concerns SK-LU-1 (Lung Adenocarcinoma). In a few lines:
as §1

For experiment [6], the system named is EW-1 (Ewing's Sarcoma). In a few lines: as §1
The subject of experiment [7] is NCI-H1993 (Lung Adenocarcinoma). In a few lines:
as §1

The subject of experiment [8] is SW872 (Other Solid Carcinomas). In a few lines: as §1
In experiment [9] the test system is MOG-G-UVW (Low Grade Glioma). In a few lines: as §1
Experiment [10] relates to HCC2998 (Colorectal Carcinoma). In outline:
as §1

The test system of experiment [11] is SNU-387 (Hepatocellular Carcinoma). In a few lines:
as §1

Experiment [12] has as its system Ca-Ski (Cervical Carcinoma). In a few lines: as §1
Experiment [13] deals with HAL-01 (B-Lymphoblastic Leukemia). In a few lines: as §1
In experiment [14] the test system is CADO-ES1 (Ewing's Sarcoma). In outline:
as §1

In experiment [15] the test system is KOPN-8 (B-Lymphoblastic Leukemia). In outline:
as §1

Experiment [16] concerns SW982 (Other Solid Carcinomas). In outline:
as §1

Experiment [17] has as its system KGN (Other Solid Carcinomas). In a few lines:
as §1

Experiment [18] relates to EFO-21 (Ovarian Carcinoma). In a few lines: as §1
For experiment [19], the system named is KMRC-1 (Kidney Carcinoma). In a few lines: as §1
In experiment [20] the test system is MV-4-11 (Acute Myeloid Leukemia). In outline:
as §1

In the case of `CC(=O)c1c(C)c2cnc(Nc3ccc(N4CCNCC4)cn3)nc2n(C2CCCC2)c1=O` [Palbociclib] + Cn1cnc2c(F)c(Nc3ccc(Br)cc3Cl)c(C(=O)NOCCO)cc21 [Selumetinib] (first compound max 10 µM, 7x7, partner max 10 µM), the Bliss excess in experiment [1] was 0.0222; in [2], -0.0193; in experiment [3] it was -0.0322; in experiment [4], -0.0788; in experiment [5], -0.0422; in [6] it was -0.0082. Moreover, the Bliss excess in [7] was 0.0904; in experiment [8], -0.0263; in [9] it was 0.0912; in [10], 0.0041; in [11], -0.0425; in [12], -0.0701. Also, the Bliss excess in experiment [13] was 0.0297; in [14] it was -0.13; in experiment [15], -0.0208; in experiment [16], -0.058; in experiment [17], 0; in experiment [18] it was -0.0531. In addition, the Bliss excess is -0.0461 in experiment [19] and 0.0537 in [20].

As to `Cn1cnc2c(F)c(Nc3ccc(Br)cc3Cl)c(C(=O)NOCCO)cc21` [Selumetinib] + C=CCn1c(=O)c2cnc(Nc3ccc(N4CCN(C)CC4)cc3)nc2n1-c1cccc(C(C)(C)O)n1 [AZD1775] (first compound max 10 µM, partner max 1 µM), the Bliss excess in experiment [1] is -0.0363; in experiment [2] it was -0.0146; in experiment [3], -0.0961; in experiment [4], -0.0357; in experiment [5], 0.0035; in [6] it was -0.0347. The Bliss excess is 0.0225 in [7]; 0.0086 in [8]; -0.0144 in [9]; -0.0267 in experiment [10]; -0.0766 in experiment [11]; 0.0199 in [12]. Moreover, the Bliss excess is 0.0056 in [13]; -0.114 in [14]; 0.0681 in experiment [15]; -0.0112 in [16]; -0.115 in experiment [17]; -0.0834 in [18]. In addition, the Bliss excess was -0.0061 in experiment [19] and 0.0249 in [20].

For the molecule `Cn1cnc2c(F)c(Nc3ccc(Br)cc3Cl)c(C(=O)NOCCO)cc21` [Selumetinib] + CC(C)n1c(=O)n(C)c2cnc3cc(F)c(-c4ccc(OCCCN5CCCCC5)nc4)cc3c21 [AZD1390] (first compound max 10 µM, 7x7, partner max 0.3 µM), the Bliss excess in experiment [1] was -0.0378; in [2], -0.0131; in experiment [3], -0.0468; in experiment [4] it was -0.0161; in experiment [5] it was -0.02; in experiment [6] it was -0.0419. The Bliss excess in experiment [7] was -0.0741; in experiment [8] it was 0.0169; in [9] it was 0.0397; in experiment [10], 0.0076; in experiment [11] it was -0.0512; in experiment [12], -0.0032. The Bliss excess in [13] is 0.0741; in experiment [14], -0.0446; in experiment [15], 0.0131; in experiment [16] it was -0.0484; in experiment [17] it was 0.0282; in experiment [18], -0.026. The values for the Bliss excess in experiment [19] and in [20] were -0.0685 and -0.0719, respectively.

As for `Cn1cnc2c(F)c(Nc3ccc(Br)cc3Cl)c(C(=O)NOCCO)cc21` [Selumetinib] + CCN(CCO)CCCOc1ccc2c(Nc3cc(CC(=O)Nc4cccc(F)c4)[nH]n3)ncnc2c1 [AZD2811] (first compound max 10 µM, 7x7, partner max 1 µM), the Bliss excess in experiment [1] was -0.0165; in experiment [2] it was 0.0145; in [3], -0.0083; in [4], 0.016; in experiment [5], -0.098; in [6], 0.0332. The Bliss excess in experiment [7] was 0.0327; in [8], -0.01; in [9], 0.0279; in [10], -0.019; in experiment [11] it was -0.0412; in [12], 0.0553. In addition, the Bliss excess in experiment [13] was 0.0385; in [14] it was -0.0515; in [15], 0.0253; in [16] it was -0.0933; in [17], -0.0586; in [18] it was -0.0877. In addition, the Bliss excess in [19] is -0.0101; in experiment [20], -0.04.

On to `Cn1cnc2c(F)c(Nc3ccc(Br)cc3Cl)c(C(=O)NOCCO)cc21` [Selumetinib] + C[C@@H]1COCCN1C2=NC(=NC(=C2)C3(CC3)[S@](=N)(=O)C)C4=C5C=CNC5=NC=C4 [AZD6738] (first compound max 10 µM, 7x7, partner max 10 µM), for which the Bliss excess in [1] is -0.0014; in [2], -0.0321; in experiment [3] it was -0.0466; in [4], 0.0414; in experiment [5], -0.116; in [6], 0.0014. Moreover, the Bliss excess in experiment [7] was -0.0274; in [8], 0.0211; in [9] it was -0.0662; in experiment [10], 0.0464; in experiment [11] it was -0.0126; in experiment [12] it was 0.0396. Moreover, the Bliss excess in experiment [13] was -0.0541; in experiment [14], -0.0031; in experiment [15], -0.154; in experiment [16], -0.0499; in [17] it was -0.0817; in [18], -0.0192. Also, the Bliss excess was -0.0303 in [19] and -0.0369 in experiment [20].
